Measurements: US8058311B2, “Imaging 18F or 11C-labelled alkylthiophenyl guanidines” (Hammersmith Imanet Limited, priority 2005, dated 2011)

Assay: Biodistribution: radioactivity in rat brain tissue after intravenous injection
Format: in vivo
Details: for signal relative to cerebellum in hippocampus and cortex: IV injection; for radioactivity in blood / radioactivity in cerebellum / radioactivity in entorhinal cortex / radioactivity in hippocampus / radioactivity in hypothalamus / radioactivity in inferior colliculi / radioactivity in occipital cortex / radioactivity in olfactory tubercles / radioactivity in plasma (shown for comparison) / radioactivity in pons with medulla / radioactivity in prefrontal cortex / radioactivity in somatosensory cortex / radioactivity in striata / radioactivity in superior colliculi / radioactivity in thalamus: intravenous injection
Protocol: N-(2-Chloro-5-(2-[^18F]fluoro-ethylthio))-phenyl-N′-(3-methylthio)-phenyl-N′-methylguanidine was prepared according to Example 4 (synthesis formulation ˜3% ethanol in 0.9% w/v saline solution) with a radiochemical purity of ˜99% and, at time of injection, the specific activity ranged from 4-16 GBq/nmol^−1. Biodistribution and blood data were from 11 adult male Sprague-Dawley rats (body weight range, 269 to 329 g; mean±S.E.=300±18 g). N-(2-Chloro-5-(2-[^18F]fluoro-ethylthio))-phenyl-N′-(3-methylthio)-phenyl-N′-methylguanidine was injected directly into the tail vein of each rat whilst under isoflurane anaesthesia. Each animal was then allowed to recover from anaesthesia. At designated times after injection, rats were sacrificed by cervical dislocation under anaesthesia and brain and body tissues were rapidly sampled.
The data were acquired using two syntheses. Rats were given an average of 86 MBq (85.3 MBq for first experimental day and 87.3 MBq for the second experimental day), in a volume of 0.20 ml (synthesis formulation ˜3% alcohol), via direct intravenous injection through the tail vein. The mass of co-injected N-(2-Chloro-5-(2-[^18F]fluoro-ethylthio))-phenyl-N′-(3-methylthio)-phenyl-N′-methylguanidine ranged from 0.7-2.9 nmol.kg^−1. Details of the methodology, together with processing and counting of the samples can be found in Hume et al., Nucl. Med. Biol. (1991) 18: 339-351. Data were normalised for injected radioactivity and body weight, giving: ‘uptake units’=(cpm.g^−1 wet weight tissue)·(injected cpm.g^−1 body weight)^−1 Results
Radioactivity concentration data are additionally collated in Tables 1 (peripheral tissue) and 2 (brain). As metabolite studies were not carried out, the proportion of the total radioactivity reflecting label associated with parent N-(2-Chloro-5-(2-[^18F]fluoro-ethylthio))-phenyl-N′-(3-methylthio)-phenyl-N′-methylguanidine is not known. Note, Blood and plasma samples were collected post-mortem from the heart ventricle.

initial uptake in all brain tissues (2 minutes after IV injection): ~4 uptake units
activity in all brain tissues (90 minutes after radioligand injection): ~0.4 uptake units
signal relative to cerebellum in hippocampus and cortex (by 90 minutes): 1
signal relative to cerebellum in hippocampus and cortex (reached over the first 40 minutes): 1.3
signal relative to cerebellum in hippocampus and cortex (start of the first 40 minutes): ~0.8
rat brain uptake of radioactivity (earliest sample time (2 min) after IV injection): high uptake of radioactivity
radioactivity in blood (2 min, n = 1): 0.288 uptake units
radioactivity in cerebellum (2 min, n = 1): 4.204 uptake units
radioactivity in entorhinal cortex (2 min, n = 1): 2.766 uptake units
radioactivity in hippocampus (2 min, n = 1): 2.864 uptake units
radioactivity in hypothalamus (2 min, n = 1): 3.397 uptake units
radioactivity in inferior colliculi (2 min, n = 1): 6.716 uptake units
radioactivity in occipital cortex (2 min, n = 1): 4.008 uptake units
radioactivity in olfactory tubercles (2 min, n = 1): 2.826 uptake units
radioactivity in plasma (shown for comparison) (2 min, n = 1): 0.264 uptake units
radioactivity in pons with medulla (2 min, n = 1): 3.678 uptake units
radioactivity in prefrontal cortex (2 min, n = 1): 3.808 uptake units
radioactivity in somatosensory cortex (2 min, n = 1): 3.531 uptake units
radioactivity in striata (2 min, n = 1): 2.306 uptake units
radioactivity in superior colliculi (2 min, n = 1): 4.977 uptake units
radioactivity in thalamus (2 min, n = 1): 4.460 uptake units
radioactivity in blood (5 min, n = 1): 0.261 uptake units
radioactivity in cerebellum (5 min, n = 1): 2.761 uptake units
radioactivity in entorhinal cortex (5 min, n = 1): 2.442 uptake units
radioactivity in hippocampus (5 min, n = 1): 2.250 uptake units
radioactivity in hypothalamus (5 min, n = 1): 2.443 uptake units
radioactivity in inferior colliculi (5 min, n = 1): 3.292 uptake units
radioactivity in occipital cortex (5 min, n = 1): 2.883 uptake units
radioactivity in olfactory tubercles (5 min, n = 1): 3.062 uptake units
radioactivity in plasma (shown for comparison) (5 min, n = 1): 0.135 uptake units
radioactivity in pons with medulla (5 min, n = 1): 2.877 uptake units
radioactivity in prefrontal cortex (5 min, n = 1): 3.099 uptake units
radioactivity in somatosensory cortex (5 min, n = 1): 2.772 uptake units
radioactivity in striata (5 min, n = 1): 1.817 uptake units
radioactivity in superior colliculi (5 min, n = 1): 3.541 uptake units
radioactivity in thalamus (5 min, n = 1): 2.566 uptake units
radioactivity in blood (10 min, n = 2): 0.146 uptake units
radioactivity in cerebellum (10 min, n = 2): 1.451 uptake units
radioactivity in entorhinal cortex (10 min, n = 2): 1.404 uptake units
radioactivity in hippocampus (10 min, n = 2): 1.396 uptake units
radioactivity in hypothalamus (10 min, n = 2): 1.275 uptake units
radioactivity in inferior colliculi (10 min, n = 2): 1.539 uptake units
radioactivity in occipital cortex (10 min, n = 2): 1.651 uptake units
radioactivity in olfactory tubercles (10 min, n = 2): 1.300 uptake units
radioactivity in plasma (shown for comparison) (10 min, n = 2): 0.102 uptake units
radioactivity in pons with medulla (10 min, n = 2): 1.530 uptake units
radioactivity in prefrontal cortex (10 min, n = 2): 1.649 uptake units
radioactivity in somatosensory cortex (10 min, n = 2): 1.588 uptake units
radioactivity in striata (10 min, n = 2): 1.433 uptake units
radioactivity in superior colliculi (10 min, n = 2): 1.677 uptake units
radioactivity in thalamus (10 min, n = 2): 1.353 uptake units
radioactivity in blood (30 min, n = 3, mean ± SD): 0.269 ± 0.042 uptake units
radioactivity in cerebellum (30 min, n = 3, mean ± SD): 0.919 ± 0.110 uptake units
radioactivity in entorhinal cortex (30 min, n = 3, mean ± SD): 0.941 ± 0.086 uptake units
radioactivity in hippocampus (30 min, n = 3, mean ± SD): 1.088 ± 0.142 uptake units
radioactivity in hypothalamus (30 min, n = 3, mean ± SD): 1.076 ± 0.250 uptake units
radioactivity in inferior colliculi (30 min, n = 3, mean ± SD): 0.841 ± 0.084 uptake units
radioactivity in occipital cortex (30 min, n = 3, mean ± SD): 1.041 ± 0.067 uptake units
radioactivity in olfactory tubercles (30 min, n = 3, mean ± SD): 0.981 ± 0.235 uptake units
radioactivity in plasma (shown for comparison) (30 min, n = 3, mean ± SD): 0.229 ± 0.047 uptake units
radioactivity in pons with medulla (30 min, n = 3, mean ± SD): 1.110 ± 0.129 uptake units
radioactivity in prefrontal cortex (30 min, n = 3, mean ± SD): 1.168 ± 0.042 uptake units
radioactivity in somatosensory cortex (30 min, n = 3, mean ± SD): 1.037 ± 0.103 uptake units
radioactivity in striata (30 min, n = 3, mean ± SD): 1.101 ± 0.202 uptake units
radioactivity in superior colliculi (30 min, n = 3, mean ± SD): 1.086 ± 0.286 uptake units
radioactivity in thalamus (30 min, n = 3, mean ± SD): 1.415 ± 0.203 uptake units
radioactivity in blood (60 min, n = 3, mean ± SD): 0.229 ± 0.068 uptake units
radioactivity in cerebellum (60 min, n = 3, mean ± SD): 0.454 ± 0.082 uptake units
radioactivity in entorhinal cortex (60 min, n = 3, mean ± SD): 0.502 ± 0.095 uptake units
radioactivity in hippocampus (60 min, n = 3, mean ± SD): 0.548 ± 0.119 uptake units
radioactivity in hypothalamus (60 min, n = 3, mean ± SD): 0.533 ± 0.115 uptake units
radioactivity in inferior colliculi (60 min, n = 3, mean ± SD): 0.456 ± 0.079 uptake units
radioactivity in occipital cortex (60 min, n = 3, mean ± SD): 0.541 ± 0.124 uptake units
radioactivity in olfactory tubercles (60 min, n = 3, mean ± SD): 0.504 ± 0.062 uptake units
radioactivity in plasma (shown for comparison) (60 min, n = 3, mean ± SD): 0.222 ± 0.055 uptake units
radioactivity in pons with medulla (60 min, n = 3, mean ± SD): 0.551 ± 0.143 uptake units
radioactivity in prefrontal cortex (60 min, n = 3, mean ± SD): 0.519 ± 0.105 uptake units
radioactivity in somatosensory cortex (60 min, n = 3, mean ± SD): 0.517 ± 0.107 uptake units
radioactivity in striata (60 min, n = 3, mean ± SD): 0.481 ± 0.136 uptake units
radioactivity in superior colliculi (60 min, n = 3, mean ± SD): 0.486 ± 0.101 uptake units
radioactivity in thalamus (60 min, n = 3, mean ± SD): 0.553 ± 0.108 uptake units
radioactivity in blood (90 min, n = 1): 0.180 uptake units
radioactivity in cerebellum (90 min, n = 1): 0.366 uptake units
radioactivity in entorhinal cortex (90 min, n = 1): 0.383 uptake units
radioactivity in hippocampus (90 min, n = 1): 0.391 uptake units
radioactivity in hypothalamus (90 min, n = 1): 0.466 uptake units
radioactivity in inferior colliculi (90 min, n = 1): 0.306 uptake units
radioactivity in occipital cortex (90 min, n = 1): 0.423 uptake units
radioactivity in olfactory tubercles (90 min, n = 1): 0.504 uptake units
radioactivity in plasma (shown for comparison) (90 min, n = 1): 0.163 uptake units
radioactivity in pons with medulla (90 min, n = 1): 0.406 uptake units
radioactivity in prefrontal cortex (90 min, n = 1): 0.414 uptake units
radioactivity in somatosensory cortex (90 min, n = 1): 0.376 uptake units
radioactivity in striata (90 min, n = 1): 0.485 uptake units
radioactivity in superior colliculi (90 min, n = 1): 0.386 uptake units
radioactivity in thalamus (90 min, n = 1): 0.551 uptake units
SMILES: CSc1cccc(N(C)C(=N)Nc2cc(SCC[18F])ccc2Cl)c1 [N-(2-Chloro-5-(2-[^18F]fluoro-ethylthio))-phenyl-N′-(3-methylthio)-phenyl-N′-methylguanidine]
